These results are taken from patent publication US20050153381A1, “Immunocapture of mitochondrial protein complexes” (priority 2002, published 2005).

The test system of data set [1] is human fibroblasts (cell strain MRC5). The data set is classed as cell-based. How it is done: Normal, human fibroblasts (cell strain MRC5) were treated with DCC for five to seven population doublings. Complex IV subunit I in treated fibroblasts was detected immunocytochemically with mAb RAC#18-1D6E1A8 using standard protocols (Janes et al., J. Histochem. Cytochem., 52: 1011-1018, 2004; RAC#18-1D6E1A8 is commercially available from Molecular Probes, MitoScience, and Abcam). Subunit I levels were determined relative to mitochondrial mass measured by porin content (a mitochondrial outer membrane protein encoded by nuclear DNA). Porin content was also determined immunocytochemically using porin-specific mAb 31HL (available from Calbiochem). mtDNA depletion in DCC-treated fibroblasts was detected using real time PCR and FISH with a mtDNA probe in accordance with commonly used methods (see, Janes et al., J. Histochem. Cytochem., 52: 1011-1018, 2004).

Data set [2] deals with human mtDNA polymerase γ (Homo sapiens, UniProt P54098). As to conditions: cited from earlier work.
The target of data set [3] is Complex I (Homo sapiens, UniProt P49821+P56556). Conditions: normal fibroblast Complex I; DPI in reaction buffer (FIG. 28).
Protocol: (§1) Mitochondria (human heart, human fibroblast or bovine heart) were solubilized at 5 mg/ml mitochondrial protein, 1% wt/vol lauryl maltoside, 100 mM NaCl, 25 mM HEPES pH 7.5, and the protease inhibitors pepstatin (0.5 μg/ml), leupeptin (0.5 μg/ml) and PMSF (1 mM). The samples were incubated at 4° C. for 30 minutes and the insoluble material removed by centrifugation at 16,000×g for 20 minutes. Solubilized mitochondria were diluted to the desired concentration in 150 mM NaCl, 50 mM Tris-HCl, pH 7.5 containing 2.5% bovine serum albumin as a blocking and stabilization agent.
(§2) After the entire sample wicked up into the nitrocellulose (approximately 15 minutes), the stick was transferred to a second well containing 50 μl of wash buffer (150 mM NaCl, 50 mM Tris-HCl, pH 7.5), which was allowed to wick up the stick (approximately 15 minutes). The absorbent pad was then removed and the entire dipstick incubated in a tube containing 3 ml wash buffer for approximately 15 minutes. The washed dipstick (with the immunocaptured OXPHOS complex of interest) was then transferred to the appropriate enzyme reaction buffer to reveal enzyme activity as described below.
Complex I. The Complex I reaction buffer solution contained 0.1 mg/ml NADH, 2.5 mg/ml NBT in 2 mM Tris-HCl, pH 7.4. […]
For data set [4], the target named is Complex IV (Bos taurus, UniProt P00396).
Protocol: as §1, §2
Complex IV. The Complex IV reaction buffer solution contained 0.5 mg/ml 3,3′ diaminobenzidine-tetrachloride (DAB) and 0.1 mM reduced cytochrome c in PBS, pH 7.4. […]
Data set [5] has as its target T1, Complex IV (cytochrome c oxidase) (Bos taurus, UniProt P00396).
T1 construct: from tissue; host or cells: bovine heart mitochondria
The experiment in a line: Complex IV (cytochrome c oxidase) activity, ferrocytochrome c oxidation at 550 nm. The class given is biochemical, bovine. As to conditions: mitochondrial membranes exposed to up to 1600 μM; membranes and isolated enzyme (FIG. 24A). How it is done:
4. Fe^3Fe^2+ Catalyzed Oxidation of Mitochondria. Mitochondria at 5 mg/mL in 25 mM KH2PO4 pH 7.2, 5 mM MgCl2 were incubated for 0, 0.5, 1, 2, or 4 hours with 1 mM FeCl3/25 mM sodium ascorbate. Incubation could not be performed for less than 0.5 h because iron could only be removed by rapid dialysis, which was performed for 30 min against 25 mM potassium phosphate pH 7.2, 5 mM MgCl2 using 12000 Da MWCO dialysis membrane (Spectrapor). After oxidation, mitochondrial membranes were subjected to the Complex IV activity assay described below. The Complex IV enzyme was then isolated by the immunocapture extraction method above.
5. Peroxynitrite Catalyzed Oxidation of Mitochondria. […] Following this oxidative treatment, Complex IV activity was measured before and after Complex IV immunocapture.
6. […] Potassium cyanide-sensitive Complex IV activity was measured in bovine heart mitochondria or with immunopurified isolated enzyme. […] Reduced bovine heart cytochrome c was purified over a Sephadex G-15 (Pharmacia) column equilibrated with assay buffer, collected in 1 mL fractions, and the concentration measured at 550 nm in a Beckman DU7. The oxidation of ferrocytochrome c was followed at 550 nm in a 1 mL reaction vessel in the DU7 or in a 96 well plate (Corning) using a Victor2 1460 multi-plate reader (Perkin-Elmer) with a narrow band pass 550 nm filter. […]

The test system of data set [6] is Complex I (NADH:UQ1 oxidoreductase). Kind of data set: Immunocaptured Complex I NADH:UQ1 oxidoreductase microplate activity assay. The class given is biochemical. As to conditions: 16 μg heart mitochondria per well; 240 ng rotenone (FIG. 27). How it is done: In brief, 1 μg mAb RAC#24-20D1AB7 was added per well (50 μl of a 20 μg/ml solution in PBS) on a protein G-coated 96-well plate, incubated overnight at 4° C., then washed three times with PBS. Then, heart mitochondria solubilized in lauryl maltoside as previously described and diluted in PBS were added at 16 μg (♦), 8 μg (▪), 4 μg (▴) and 0 μg (●) per well in 50 μl aliquots and incubated at room temperature for 2 hours. The wells then were washed three times with 200 μl/well of 20 mM Tris/HCl, pH 7.5, 50 mM KCl, 0.015% lauryl maltoside. A phospholipid solution (see below) was added at 40 μl/well, incubated for 45 minutes at 4° C. and then 200 μl of assay solution (25 mM KPi pH 7.2, 5 mM MgCl2, 2 mM KCN, 260 μM NADH, and 200 μM UQ1) was added directly to the phospholipid solution. The oxidation of NADH was measured by following the decrease of the absorbance at 340 nm. Absorbance changes were measured at 340 nm with a Victor2 from Perkin Elmer for two hours.
The phospholipid stock solution was made by mixing 0.76 ml of 10 mg/ml egg-yolk phosphatidyl choline, 0.38 ml of 5 mg/ml egg-yolk phosphatidylethanolamine, and 0.1 ml of 5 mg/ml cardiolipin in round bottom flask. This mixture was dried under N2, resuspended in 4.25 ml buffer I (20 mM Tris/HCl pH 7.5, 50 mM KCl), and vortexed. […]

The target in data set [7] is T2, recombinant human IF1, His-tagged (UniProt Q9UII2).
T2 sequence: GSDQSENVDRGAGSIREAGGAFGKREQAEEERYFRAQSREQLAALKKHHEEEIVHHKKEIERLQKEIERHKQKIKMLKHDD

Data set [8] concerns the target T3, C-V-IP (inhibitor protein IF1), human (UniProt Q9UII2).
T3 sequence: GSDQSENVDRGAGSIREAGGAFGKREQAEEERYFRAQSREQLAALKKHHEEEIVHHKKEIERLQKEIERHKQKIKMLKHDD

Data set [9] concerns human mitochondrial F1/F0 ATPase (Complex V). The experiment in a line: ATPase activity of immunocaptured F1/F0 ATPase, 96-well. The data set is classed as biochemical. The protocol:
Solubilization. Samples were thawed and placed in 25 mM HEPES pH 7.5 (to dissociate F1F0/IF1 interactions) or 10 mM […] (Anatrace) pH 6.5 (to retain F1F0/IF1 interactions), containing 0.4% (w/v) […], and the protease inhibitors leupeptin (0.5 μg/ml), pepstatin (0.5 μg/ml) and PMSF (1 mM). Mitochondria were solubilized at 5 mg/ml and whole cells were solubilized at 2×10^7 cells/ml. Samples were mixed well and then kept on ice for 30 minutes with occasional agitation. Insoluble material was then removed by centrifugation at 16,000×g for 20 minutes at 4° C.
Immunocapture. Assays were run in 96-well plates (Falcon Probind™) using 100 μl/well. […] To control for non-specific adsorption of ATPase, a non-specific mouse monoclonal antibody was used as a null capture mAb. Wells were then loaded with solubilized test samples diluted in TBS with 2.5% BSA, incubated for 2 hours at room temperature and then washed 4 times with TBS.
ATPase activity. ATPase reaction buffer (25 mM HEPES pH 7.5 or 10 mM MOPS pH 6.5, with 25 mM KCl, 5 mM MgCl2, 5 mM KCN and 2 mM ATP) was added at 100 μl/well and incubated for 3 hours at 37° C. The reaction was stopped and free Pi generated by ATP hydrolysis was detected essentially as described by Walker et al. (Meth. Enzymol., 260: 163-190, 1995) by addition of 0.5% ammonium molybendate in 0.7 M H2SO4 (42 μl/well) followed by 10% ascorbic acid (4 μl/well). After incubation for 30 minutes at room temperature to allow color development, absorbance was measured at 690 nm.
IF1 Stripping Conditions. IF1 was dissociated from previously immunocaptured IF1/F1F0 complexes by exposure to IF1 stripping buffer (30 mM Tris-sulfate pH 8, 250 mM KCl, 2 mM EDTA, 75 mM sucrose) for 30 minutes at 37° C. (Van Raaij et al., Biochem. 35: 15618-15625, 1996). The wells were then washed with either a pH 7.5 wash buffer (TBS) or a pH 6.5 wash buffer (10 mM MOPS pH 6.5, 150 mM NaCl and 1 mM MgCl2), and ATPase activity measured at either pH 7.5 or pH 6.5 as described above.
IF1 Addition Conditions. Recombinant human IF1 was obtained by PCR-based amplification of the appropriate gene from a human heart CDNA library (Clontech), cloning into pET15b (Novagen), transformation of E. coli and overexpression and purification of the His-tagged protein on a Ni column by standard protocols (Novagen). Isolated protein was diluted in pH 6.5 wash buffer (as described above) containing 1 mM ATP and incubated with previously immunocaptured F1F0. The wells were then washed with pH 6.5 wash buffer and ATPase activity measured at pH 6.5 as described above.

Sequence of Complex I (P49821 21-464): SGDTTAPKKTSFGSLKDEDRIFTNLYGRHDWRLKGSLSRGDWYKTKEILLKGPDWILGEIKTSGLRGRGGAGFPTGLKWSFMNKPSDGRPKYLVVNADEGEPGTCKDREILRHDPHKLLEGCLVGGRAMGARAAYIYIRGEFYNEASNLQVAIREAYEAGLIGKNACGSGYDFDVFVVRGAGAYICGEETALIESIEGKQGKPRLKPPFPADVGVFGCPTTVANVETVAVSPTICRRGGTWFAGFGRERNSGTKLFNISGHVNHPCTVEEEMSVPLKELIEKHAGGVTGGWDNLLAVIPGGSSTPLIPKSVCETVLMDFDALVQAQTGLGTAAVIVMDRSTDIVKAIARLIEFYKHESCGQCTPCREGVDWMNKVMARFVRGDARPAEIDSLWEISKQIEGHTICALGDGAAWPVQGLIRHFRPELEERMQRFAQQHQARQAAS
Sequence of Complex I (P56556 whole entry): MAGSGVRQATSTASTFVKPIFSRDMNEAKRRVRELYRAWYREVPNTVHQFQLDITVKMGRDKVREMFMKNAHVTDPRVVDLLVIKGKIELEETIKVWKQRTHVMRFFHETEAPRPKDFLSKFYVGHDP
Sequence of human mtDNA polymerase γ (P54098 whole entry): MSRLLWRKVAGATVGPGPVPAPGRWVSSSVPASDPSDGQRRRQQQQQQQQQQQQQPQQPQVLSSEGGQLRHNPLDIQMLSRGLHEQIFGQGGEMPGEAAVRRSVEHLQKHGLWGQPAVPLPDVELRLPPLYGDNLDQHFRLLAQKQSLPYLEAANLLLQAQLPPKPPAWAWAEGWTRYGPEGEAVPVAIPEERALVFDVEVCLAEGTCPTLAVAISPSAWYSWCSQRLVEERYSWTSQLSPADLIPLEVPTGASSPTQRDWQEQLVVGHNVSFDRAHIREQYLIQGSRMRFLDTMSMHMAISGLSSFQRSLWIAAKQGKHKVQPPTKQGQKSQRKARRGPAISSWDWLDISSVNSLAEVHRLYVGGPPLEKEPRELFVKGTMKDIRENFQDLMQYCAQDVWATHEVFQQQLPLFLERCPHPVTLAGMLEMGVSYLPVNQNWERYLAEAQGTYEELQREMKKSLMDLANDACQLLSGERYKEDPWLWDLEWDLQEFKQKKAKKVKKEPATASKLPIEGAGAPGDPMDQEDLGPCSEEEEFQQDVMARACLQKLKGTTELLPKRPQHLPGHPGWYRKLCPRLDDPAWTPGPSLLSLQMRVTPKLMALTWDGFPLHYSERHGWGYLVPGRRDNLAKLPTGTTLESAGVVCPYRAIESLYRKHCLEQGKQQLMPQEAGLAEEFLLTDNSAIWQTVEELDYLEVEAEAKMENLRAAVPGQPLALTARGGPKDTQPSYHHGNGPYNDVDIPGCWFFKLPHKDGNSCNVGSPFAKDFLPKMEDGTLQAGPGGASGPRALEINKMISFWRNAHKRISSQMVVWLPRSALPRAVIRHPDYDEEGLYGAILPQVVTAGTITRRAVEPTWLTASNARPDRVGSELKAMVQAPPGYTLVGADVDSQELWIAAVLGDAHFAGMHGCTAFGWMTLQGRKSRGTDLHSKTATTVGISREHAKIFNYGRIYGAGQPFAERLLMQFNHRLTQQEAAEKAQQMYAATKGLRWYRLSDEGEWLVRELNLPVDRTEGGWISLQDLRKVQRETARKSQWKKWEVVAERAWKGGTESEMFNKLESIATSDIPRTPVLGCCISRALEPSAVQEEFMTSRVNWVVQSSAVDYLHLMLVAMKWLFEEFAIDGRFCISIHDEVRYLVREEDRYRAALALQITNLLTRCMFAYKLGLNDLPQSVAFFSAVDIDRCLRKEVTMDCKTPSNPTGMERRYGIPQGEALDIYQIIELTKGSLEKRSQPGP

On to `Nc1ccn([C@H]2CC[C@@H](CO)O2)c(=O)n1` [DDC, zalcitabine], for which the “depletion of mtDNA from fibroblasts” value in data set [1] is “within three population doublings”. Also, the “inhibition of isolated human mtDNA polymerase γ (hierarchy DDC≧DDI≧D4T≧3TC≧AZT≧ABV)” value in data set [2] is listed as “inhibited most dramatically”.

As to `c1ccc2c(c1)[I+]c1ccccc1-2` [DPI, diphenyleneiodonium], in data set [3], the “effect on Complex I activity dipstick signal” value was “reduced signal”.

On to `[N-]=[N+]=[N-]` [azide], for which the “inhibition of oxidase activity in the Complex IV capture zone” value in data set [4] is reported as “near complete inhibition”.

In the case of `O=NOO` [peroxynitrite], the “inhibition of Complex IV” value in [5] is given as roughly 50%.

With `C=C(C)[C@H]1Cc2c(ccc3c2O[C@@H]2COc4cc(OC)c(OC)cc4[C@@H]2C3=O)O1` [rotenone], in data set [6], the “fraction of immunocaptured NADH:UQ1 oxidoreductase activity sensitive to inhibition” value is “approximately 30%”.

For the molecule Complex V (F1/F0 ATPase), human, the ATP hydrolysis activity entry in [7] is listed as “addition of recombinant IF1, which reduced the rate of ATP hydrolysis to that before stripping”; in data set [8], “the enzyme could be greatly activated (>10-fold) by conditions that strip the IF1 from the protein”.

B1: recombinant IF1: His-tagged recombinant human inhibitor protein of F1/F0 ATPase expressed in E. coli (protein)
chain: GSDQSENVDRGAGSIREAGGAFGKREQAEEERYFRAQSREQLAALKKHHEEEIVHHKKEIERLQKEIERHKQKIKMLKHDD
modifications: left off: small tags and cut ends
For the molecule B1, the “effect on stripped F1/F0 ATPase from GM00028 and MRC5 cells” value in data set [9] (5 μg/ml (FIG. 9)) is on record as “inhibited”. Besides, in data set [9] (human heart mitochondria, assayed at pH 6.5 (FIG. 6)), the “effect on ATP hydrolysis of IF1-stripped immunocaptured F1/F0 ATPase” value was “reduced the rate of ATP hydrolysis to that before stripping”.
